Results as given in the supplement of paper PMC10307832.

Key:
Experiment in all cases: relative viability (nuclei count vs DMSO), 5 days (fraction); higher = more cells survive
Cediranib + Alpelisib = compound: COc1cc2c(Oc3ccc4[nH]c(C)cc4c3F)ncnc2cc1OCCCN1CCCC1 [Cediranib] + Cc1nc(NC(=O)N2CCC[C@H]2C(N)=O)sc1-c1ccnc(C(C)(C)C(F)(F)F)c1 [Alpelisib] (partner 2 µM)
Method in brief: (§1)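 After 5 days of treatment, lung cancer cells in 1536-well plates were fixed and stained in a single step (final 0.05% Triton X-100, 1% formaldehyde, 1 ug/ml Hoechst) and their nuclei counted on 4× images. Treatment had been applied by pin tool the day after seeding as one drug alone or as a fixed anchor-drug dose with five library-drug doses (not always all listed) in √10 steps. Relative viability is the nuclei count of treated wells divided by that of vehicle wells, and values are medians of duplicate plates.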

Decitabine + Lapatinib = compound: Nc1ncn([C@H]2C[C@H](O)[C@@H](CO)O2)c(=O)n1 [Decitabine] + CS(=O)(=O)CCNCc1ccc(-c2ccc3ncnc(Nc4ccc(OCc5cccc(F)c5)c(Cl)c4)c3c2)o1 [Lapatinib] (partner 2 µM)
Method in brief: as §1

Decitabine + Pemetrexed = compound: Nc1ncn([C@H]2C[C@H](O)[C@@H](CO)O2)c(=O)n1 [Decitabine] + Nc1nc2[nH]cc(CCc3ccc(C(=O)N[C@@H](CCC(=O)O)C(=O)O)cc3)c2c(=O)[nH]1 [Pemetrexed] (partner 0.2 µM)
Method in brief: as §1

Halofuginone + Olaparib = compound: O=C(C[C@H]1NCCC[C@@H]1O)Cn1cnc2cc(Br)c(Cl)cc2c1=O (racemic) [Halofuginone] + O=C(c1cc(Cc2n[nH]c(=O)c3ccccc23)ccc1F)N1CCN(C(=O)C2CC2)CC1 [Olaparib] (partner 8 µM)
Method in brief: as §1

Row | Cell Line | relative viability (Cediranib + Alpelisib; first compound 0.04 µM) | relative viability (Cediranib + Alpelisib; first compound 0.1265 µM) | relative viability (Cediranib + Alpelisib; first compound 0.4 µM) | relative viability (Cediranib + Alpelisib; first compound 1.265 µM) | relative viability (Cediranib + Alpelisib; first compound 4 µM) | relative viability (Decitabine + Lapatinib; first compound 0.04 µM) | relative viability (Decitabine + Lapatinib; first compound 0.1265 µM) | relative viability (Decitabine + Lapatinib; first compound 0.4 µM) | relative viability (Decitabine + Lapatinib; first compound 1.265 µM) | relative viability (Decitabine + Lapatinib; first compound 4 µM) | relative viability (Decitabine + Pemetrexed; first compound 0.04 µM) | relative viability (Decitabine + Pemetrexed; first compound 0.1265 µM) | relative viability (Decitabine + Pemetrexed; first compound 0.4 µM) | relative viability (Decitabine + Pemetrexed; first compound 1.265 µM) | relative viability (Decitabine + Pemetrexed; first compound 4 µM) | relative viability (Halofuginone + Olaparib; first compound 0.001 µM) | relative viability (Halofuginone + Olaparib; first compound 0.003162 µM) | relative viability (Halofuginone + Olaparib; first compound 0.01 µM) | relative viability (Halofuginone + Olaparib; first compound 0.03162 µM) | relative viability (Halofuginone + Olaparib; first compound 0.1 µM)
1 | NCI-H1651 | 1.04 | 1.03 | 1.02 | 1.01 | 0.805 | 0.799 | 0.977 | 0.708 | 0.676 | 0.747 | 0.543 | 0.43 | 0.434 | 0.331 | 0.278 | 0.177 | 0.194 | 0.2 | 0.178 | 0.176
2 | NCI-H1666 | 1.04 | 0.995 | 0.875 | 0.924 | 0.962 | 0.622 | 0.66 | 0.488 | 0.56 | 0.476 | 0.874 | 0.79 | 0.712 | 0.641 | 0.504 | 0.758 | 0.785 | 0.714 | 0.789 | 0.705
3 | NCI-H1734 | 0.626 | 0.741 | 0.711 | 0.619 | 0.848 | 0.727 | 0.91 | 0.635 | 0.449 | 0.38 | 0.345 | 0.323 | 0.293 | 0.262 | 0.284 | 0.632 | 0.621 | 0.6 | 0.584 | 0.22
4 | NCI-H1755 | 1 | 0.919 | 0.854 | 0.918 | 1.01 | 1.02 | 0.991 | 0.836 | 0.573 | 0.481 | 0.477 | 0.376 | 0.406 | 0.419 | 0.365 | 0.853 | 0.941 | 0.881 | 0.833 | 0.723
5 | NCI-H1792 | 0.762 | 0.939 | 0.648 | 0.718 | 0.589 | 0.851 | 0.94 | 0.806 | 0.564 | 0.53 | 0.715 | 0.894 | 0.587 | 0.309 | 0.255 | 0.529 | 0.424 | 0.355 | 0.42 | 0.0661
6 | NCI-H1793 | 0.683 | 0.694 | 0.64 | – | 0.788 | 0.543 | 0.604 | 0.489 | 0.562 | 0.291 | 0.692 | 0.875 | 0.511 | 0.44 | 0.303 | 0.988 | 0.852 | 0.814 | 0.902 | 0.294
7 | NCI-H1915 | 1.05 | 1 | 0.997 | 1.08 | 1.09 | 0.608 | 0.33 | 0.257 | 0.189 | 0.219 | 0.274 | 0.225 | 0.222 | 0.191 | 0.176 | 0.225 | 0.247 | 0.241 | 0.26 | 0.237
8 | NCI-H1944 | 0.876 | 1.16 | 0.757 | 0.785 | 0.815 | 0.807 | 0.819 | 0.526 | 0.428 | 0.416 | 0.438 | 0.448 | 0.288 | 0.228 | 0.211 | 0.416 | 0.407 | 0.395 | 0.405 | 0.402
9 | NCI-H1975 | 0.716 | 0.621 | 0.619 | 0.677 | 0.591 | 0.538 | 0.456 | 0.364 | 0.327 | 0.29 | 0.247 | 0.205 | 0.182 | 0.209 | 0.188 | 0.875 | 0.868 | 0.721 | 0.429 | 0.14
10 | NCI-H1993 | 0.734 | 0.709 | 0.631 | 0.677 | 0.791 | 0.837 | 0.774 | 0.8 | 0.731 | 0.725 | 0.542 | 0.583 | 0.607 | 0.506 | 0.403 | 0.949 | 0.699 | 1.04 | 1.02 | 0.623
11 | NCI-H2009 | 1.18 | 1.13 | 1.09 | 1.16 | 1.14 | 0.8 | 0.599 | 0.225 | 0.268 | 0.276 | 0.902 | 0.727 | 0.439 | 0.357 | 0.341 | 0.744 | 0.664 | 0.66 | 0.706 | 0.541
12 | NCI-H2023 | 0.667 | 0.706 | 0.58 | 0.559 | 0.667 | 0.55 | 0.519 | 0.125 | 0.231 | 0.157 | 0.14 | 0.175 | 0.144 | 0.126 | 0.115 | 0.509 | 0.565 | 0.405 | 0.239 | 0.0514
13 | NCI-H2085 | 1.02 | 0.94 | 0.974 | 1.09 | 0.953 | 0.628 | 0.646 | 0.446 | 0.494 | 0.445 | 0.782 | 0.807 | 0.511 | 0.513 | 0.364 | 0.795 | 0.816 | 0.728 | 0.736 | 0.684
